Measured values taken from paper PMC11178787, “Development of a natural product optimization strategy for inhibitors against MraY, a promising antibacterial target” (Nature Communications, 2024).
pIC50: −log10 of the molar value. Values after ≈ are worked out from the molar mass of the structure shown.

Tests used:
MraYSA (S. aureus MraY) = MraYSA (S. aureus MraY) (Staphylococcus aureus, UniProt Q2FZ93); assay: fluorescence assay of dansylated lipid I formation; type: biochemical
Enterococcus faecalis 30 = system: T1, Enterococcus faecalis 30; assay: microbe, parasite or virus in culture; set-up: CLSI broth microdilution MIC in MHB-II; details: Enterococcus faecalis, 30, 18 h, read-out: MIC
T1 construct: 30
Experimental: (§1) MICs were determined by a microdilution broth method as recommended by the CLSI with MHB-II. For MICs of stable analogues, a 2-fold dilution of each compound was prepared in DMSO at 100-fold of the final concentration. The strains were inoculated with 5 × 10^5 cfu/mL in 96-well plates (each 100 μL/well), and 1 μL of DMSO solutions of the samples were added (contained less than 1% DMSO). The plates were incubated at 37 °C for 18 h and then MICs were determined. MICs of stable analogues in Table 1 were the highest value in three trials. MICs in Supplementary Table 1 were determined in one trial.

Enterococcus faecalis 21 = system: T2, Enterococcus faecalis 21; assay: microbe, parasite or virus in culture; set-up: CLSI broth microdilution MIC in MHB-II; details: Enterococcus faecalis, 21, 18 h, read-out: MIC
T2 construct: 21
Experimental: as §1

Enterococcus faecium 2 = assay: microbe, parasite or virus in culture; set-up: CLSI broth microdilution MIC in MHB-II; details: Enterococcus faecium, 2, 18 h, read-out: MIC
Experimental: as §1

[1] = system: T3, Staphylococcus aureus #2334; assay: microbe, parasite or virus in culture; set-up: CLSI broth microdilution MIC in MHB-II; details: Staphylococcus aureus, 18 h, read-out: MIC
T3 construct: #2334
Experimental: as §1

Enterococcus faecalis 24 = system: T4, Enterococcus faecalis 24; assay: microbe, parasite or virus in culture; set-up: CLSI broth microdilution MIC in MHB-II; details: Enterococcus faecalis, 24, 18 h, read-out: MIC
T4 construct: 24
Experimental: as §1

Enterococcus faecium 7 = assay: microbe, parasite or virus in culture; set-up: CLSI broth microdilution MIC in MHB-II; details: Enterococcus faecium, 7, 18 h, read-out: MIC
Experimental: as §1

Enterococcus faecium 10 = system: T5, Enterococcus faecium 10; assay: microbe, parasite or virus in culture; set-up: CLSI broth microdilution MIC in MHB-II; details: Enterococcus faecium, 10, 18 h, read-out: MIC
T5 construct: 10
Experimental: as §1

Enterococcus faecium 1 = assay: microbe, parasite or virus in culture; set-up: CLSI broth microdilution MIC in MHB-II; details: Enterococcus faecium, 1, 18 h, read-out: MIC
Experimental: as §1

[2] = system: T6, Staphylococcus aureus #2934; assay: microbe, parasite or virus in culture; set-up: CLSI broth microdilution MIC in MHB-II; details: Staphylococcus aureus, 18 h, read-out: MIC
T6 construct: #2934
Experimental: as §1

Enterococcus faecium 9 = assay: microbe, parasite or virus in culture; set-up: CLSI broth microdilution MIC in MHB-II; details: Enterococcus faecium, 9, 18 h, read-out: MIC
Experimental: as §1

Enterococcus faecium 4 = assay: microbe, parasite or virus in culture; set-up: CLSI broth microdilution MIC in MHB-II; details: Enterococcus faecium, 4, 18 h, read-out: MIC
Experimental: as §1

Enterococcus faecalis 22 = system: T7, Enterococcus faecalis 22; assay: microbe, parasite or virus in culture; set-up: CLSI broth microdilution MIC in MHB-II; details: Enterococcus faecalis, 22, 18 h, read-out: MIC
T7 construct: 22
Experimental: as §1

Enterococcus faecium 5 = assay: microbe, parasite or virus in culture; set-up: CLSI broth microdilution MIC in MHB-II; details: Enterococcus faecium, 5, 18 h, read-out: MIC
Experimental: as §1

Enterococcus faecalis 28 = system: T8, Enterococcus faecalis 28; assay: microbe, parasite or virus in culture; set-up: CLSI broth microdilution MIC in MHB-II; details: Enterococcus faecalis, 28, 18 h, read-out: MIC
T8 construct: 28
Experimental: as §1

[3] = system: T9, Staphylococcus aureus #2110; assay: microbe, parasite or virus in culture; set-up: CLSI broth microdilution MIC in MHB-II; details: Staphylococcus aureus, 18 h, read-out: MIC
T9 construct: #2110
Experimental: as §1

Enterococcus faecalis 26 = system: T10, Enterococcus faecalis 26; assay: microbe, parasite or virus in culture; set-up: CLSI broth microdilution MIC in MHB-II; details: Enterococcus faecalis, 26, 18 h, read-out: MIC
T10 construct: 26
Experimental: as §1

Enterococcus faecium 8 = assay: microbe, parasite or virus in culture; set-up: CLSI broth microdilution MIC in MHB-II; details: Enterococcus faecium, 8, 18 h, read-out: MIC
Experimental: as §1

[4] = system: T11, Staphylococcus aureus #2071; assay: microbe, parasite or virus in culture; set-up: CLSI broth microdilution MIC in MHB-II; details: Staphylococcus aureus, 18 h, read-out: MIC
T11 construct: #2071
Experimental: as §1

Enterococcus faecalis 27 = system: T12, Enterococcus faecalis 27; assay: microbe, parasite or virus in culture; set-up: CLSI broth microdilution MIC in MHB-II; details: Enterococcus faecalis, 27, 18 h, read-out: MIC
T12 construct: 27
Experimental: as §1

[5] = system: T13, Staphylococcus aureus #2933; assay: microbe, parasite or virus in culture; set-up: CLSI broth microdilution MIC in MHB-II; details: Staphylococcus aureus, 18 h, read-out: MIC
T13 construct: #2933
Experimental: as §1

Enterococcus faecium 11 = system: T14, Enterococcus faecium 11; assay: microbe, parasite or virus in culture; set-up: CLSI broth microdilution MIC in MHB-II; details: Enterococcus faecium, 11, 18 h, read-out: MIC
T14 construct: 11
Experimental: as §1

[6] = system: T15, Staphylococcus aureus #2935; assay: microbe, parasite or virus in culture; set-up: CLSI broth microdilution MIC in MHB-II; details: Staphylococcus aureus, 18 h, read-out: MIC
T15 construct: #2935
Experimental: as §1

[7] = system: T16, Staphylococcus aureus #1958; assay: microbe, parasite or virus in culture; set-up: CLSI broth microdilution MIC in MHB-II; details: Staphylococcus aureus, 18 h, read-out: MIC
T16 construct: #1958
Experimental: as §1

Enterococcus faecium 3 = assay: microbe, parasite or virus in culture; set-up: CLSI broth microdilution MIC in MHB-II; details: Enterococcus faecium, 3, 18 h, read-out: MIC
Experimental: as §1

[8] = system: T17, Staphylococcus aureus #2310; assay: microbe, parasite or virus in culture; set-up: CLSI broth microdilution MIC in MHB-II; details: Staphylococcus aureus, 18 h, read-out: MIC
T17 construct: #2310
Experimental: as §1

[9] = system: T18, Staphylococcus aureus #2932; assay: microbe, parasite or virus in culture; set-up: CLSI broth microdilution MIC in MHB-II; details: Staphylococcus aureus, 18 h, read-out: MIC
T18 construct: #2932
Experimental: as §1

Sequence of MraYSA (S. aureus MraY) (Q2FZ93 whole entry): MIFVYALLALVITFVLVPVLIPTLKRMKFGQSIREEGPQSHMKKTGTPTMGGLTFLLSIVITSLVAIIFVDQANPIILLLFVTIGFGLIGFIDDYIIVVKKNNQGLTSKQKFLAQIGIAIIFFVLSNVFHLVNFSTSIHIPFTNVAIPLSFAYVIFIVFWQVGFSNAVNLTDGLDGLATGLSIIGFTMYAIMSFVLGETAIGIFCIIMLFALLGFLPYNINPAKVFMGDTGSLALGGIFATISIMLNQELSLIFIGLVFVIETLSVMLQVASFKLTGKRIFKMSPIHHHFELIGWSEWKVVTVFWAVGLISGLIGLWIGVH

SMILES	pIC50 (MraYSA (S. aureus MraY))	MIC (Enterococcus faecalis 30)	MIC (Enterococcus faecalis 21)	MIC (Enterococcus faecium 2)	MIC (Enterococcus faecalis 24)	MIC (Enterococcus faecium 7)	MIC (Enterococcus faecium 10)	MIC (Enterococcus faecium 1)	MIC [2]	MIC (Enterococcus faecium 9)	MIC (Enterococcus faecium 4)	MIC (Enterococcus faecalis 22)	MIC (Enterococcus faecium 5)	MIC (Enterococcus faecalis 28)	MIC [3]	MIC (Enterococcus faecalis 26)	MIC (Enterococcus faecium 8)	MIC [4]	MIC (Enterococcus faecalis 27)	MIC [5]	further results
CCCCCCCCCCCCCCCC(=O)N[C@@H](CCCCN)C(=O)Nc1cccc(CN[C@H](C(=O)O)[C@H](O[C@@H]2O[C@H](CN)[C@@H](O)[C@H]2O)[C@H]2O[C@@H](n3ccc(=O)[nH]c3=O)[C@H](O)[C@@H]2O)c1 [compound 6, analogue 6]	8.43	0.5 µg/mL (≈ 0.543 µM)	0.25 µg/mL (≈ 0.272 µM)	1 µg/mL (≈ 1.09 µM)	0.5 µg/mL (≈ 0.543 µM)	2 µg/mL (≈ 2.17 µM)	1 µg/mL (≈ 1.09 µM)	1 µg/mL (≈ 1.09 µM)	0.5 µg/mL (≈ 0.543 µM)	1 µg/mL (≈ 1.09 µM)	0.5 µg/mL (≈ 0.543 µM)	0.5 µg/mL (≈ 0.543 µM)	1 µg/mL (≈ 1.09 µM)	0.13 µg/mL (≈ 0.141 µM)	2 µg/mL (≈ 2.17 µM)	0.25 µg/mL (≈ 0.272 µM)	0.5 µg/mL (≈ 0.543 µM)	64 µg/mL (≈ 69.6 µM)	0.5 µg/mL (≈ 0.543 µM)	0.5 µg/mL (≈ 0.543 µM)	MIC [1]: 1 µg/mL (≈ 1.09 µM); MIC (Enterococcus faecium 11): 1 µg/mL (≈ 1.09 µM); MIC [6]: 1 µg/mL (≈ 1.09 µM); MIC [7]: 1 µg/mL (≈ 1.09 µM); MIC (Enterococcus faecium 3): 1 µg/mL (≈ 1.09 µM)
CCCCCCCCCCCCCCCC(=O)N[C@@H](CCCNC(=N)N)C(=O)Nc1cccc(CN[C@H](C(=O)O)[C@H](O[C@@H]2O[C@H](CN)[C@@H](O)[C@H]2O)[C@H]2O[C@@H](n3ccc(=O)[nH]c3=O)[C@H](O)[C@@H]2O)c1 [compound 8, analogue 8]	8.74	0.5 µg/mL (≈ 0.527 µM)	1 µg/mL (≈ 1.05 µM)	2 µg/mL (≈ 2.11 µM)	1 µg/mL (≈ 1.05 µM)	1 µg/mL (≈ 1.05 µM)	1 µg/mL (≈ 1.05 µM)	1 µg/mL (≈ 1.05 µM)	1 µg/mL (≈ 1.05 µM)	1 µg/mL (≈ 1.05 µM)	1 µg/mL (≈ 1.05 µM)	1 µg/mL (≈ 1.05 µM)	1 µg/mL (≈ 1.05 µM)	< 0.06 µg/mL	2 µg/mL (≈ 2.11 µM)	0.25 µg/mL (≈ 0.264 µM)	1 µg/mL (≈ 1.05 µM)	64 µg/mL (≈ 67.5 µM)	0.5 µg/mL (≈ 0.527 µM)	1 µg/mL (≈ 1.05 µM)	MIC [8]: 2 µg/mL (≈ 2.11 µM); MIC [9]: 2 µg/mL (≈ 2.11 µM); MIC (Enterococcus faecium 11): 2 µg/mL (≈ 2.11 µM); MIC [6]: 2 µg/mL (≈ 2.11 µM); MIC [7]: 2 µg/mL (≈ 2.11 µM); MIC (Enterococcus faecium 3): 2 µg/mL (≈ 2.11 µM)
CCCCCCCCCCCCCCCC(=O)N[C@@H](CCCNC(=N)N)C(=O)NCc1cccc(CN[C@H](C(=O)O)[C@H](O[C@@H]2O[C@H](CN)[C@@H](O)[C@H]2O)[C@H]2O[C@@H](n3ccc(=O)[nH]c3=O)[C@H](O)[C@@H]2O)c1 [compound 4, analogue 4]	8.30	0.25 µg/mL (≈ 0.26 µM)	0.13 µg/mL (≈ 0.135 µM)	2 µg/mL (≈ 2.08 µM)	0.13 µg/mL (≈ 0.135 µM)	1 µg/mL (≈ 1.04 µM)	1 µg/mL (≈ 1.04 µM)	1 µg/mL (≈ 1.04 µM)	1 µg/mL (≈ 1.04 µM)	0.5 µg/mL (≈ 0.52 µM)	0.5 µg/mL (≈ 0.52 µM)	0.13 µg/mL (≈ 0.135 µM)	1 µg/mL (≈ 1.04 µM)	< 0.06 µg/mL	4 µg/mL (≈ 4.16 µM)	0.25 µg/mL (≈ 0.26 µM)	0.5 µg/mL (≈ 0.52 µM)	1 µg/mL (≈ 1.04 µM)	< 0.06 µg/mL	1 µg/mL (≈ 1.04 µM)	MIC [8]: 2 µg/mL (≈ 2.08 µM); MIC [1]: 2 µg/mL (≈ 2.08 µM); MIC [9]: 2 µg/mL (≈ 2.08 µM); MIC (Enterococcus faecium 11): 1 µg/mL (≈ 1.04 µM); MIC [6]: 2 µg/mL (≈ 2.08 µM); MIC [7]: 2 µg/mL (≈ 2.08 µM); MIC (Enterococcus faecium 3): 1 µg/mL (≈ 1.04 µM)
CCCCCCCCCCCCCCCC(=O)N[C@@H](CCCCN)C(=O)Nc1ccc(CN[C@H](C(=O)O)[C@H](O[C@@H]2O[C@H](CN)[C@@H](O)[C@H]2O)[C@H]2O[C@@H](n3ccc(=O)[nH]c3=O)[C@H](O)[C@@H]2O)cc1 [compound 5, analogue 5]	8.51	0.13 µg/mL (≈ 0.141 µM)	0.5 µg/mL (≈ 0.543 µM)	0.5 µg/mL (≈ 0.543 µM)	0.25 µg/mL (≈ 0.272 µM)	0.5 µg/mL (≈ 0.543 µM)	0.5 µg/mL (≈ 0.543 µM)	1 µg/mL (≈ 1.09 µM)	0.25 µg/mL (≈ 0.272 µM)	0.25 µg/mL (≈ 0.272 µM)	0.25 µg/mL (≈ 0.272 µM)	0.13 µg/mL (≈ 0.141 µM)	0.5 µg/mL (≈ 0.543 µM)	< 0.06 µg/mL	1 µg/mL (≈ 1.09 µM)	0.13 µg/mL (≈ 0.141 µM)	0.25 µg/mL (≈ 0.272 µM)	0.5 µg/mL (≈ 0.543 µM)	0.25 µg/mL (≈ 0.272 µM)	0.5 µg/mL (≈ 0.543 µM)	MIC [8]: 1 µg/mL (≈ 1.09 µM); MIC [1]: 1 µg/mL (≈ 1.09 µM); MIC [9]: 1 µg/mL (≈ 1.09 µM); MIC (Enterococcus faecium 11): 0.5 µg/mL (≈ 0.543 µM); MIC [6]: 1 µg/mL (≈ 1.09 µM); MIC [7]: 1 µg/mL (≈ 1.09 µM); MIC (Enterococcus faecium 3): 0.5 µg/mL (≈ 0.543 µM)
